Earlier results as cited in paper PMC8549773 (Chemical Science, 2021).

Test system: GCase
Conditions: administered to rats

Question: Which “GCase inactivation in organs” value does the source give for `OC[C@H]1O[C@@H](F)[C@H](F)[C@@H](O)[C@@H]1O` [2FGlcF, 2-deoxy-2-fluoro-β-D-glucosyl fluoride] here?
Answer: Its value is “inactivates GCase in all organs, including the brain”.
